{"source": "ChEMBL document CHEMBL2346628", "about": "“Real-time analysis of membrane permeabilizing effects of oleanane saponins” (Bioorg Med Chem, 2013)", "key": {"[1]": {"experiment": "Hemolytic activity against human RBC at 48 uM after 30 mins", "type": "ADME, cell-based", "settings": "erythrocyte, 0.5 h"}, "[2]": {"experiment": "Hemolytic activity against human RBC at 24 uM after 30 mins relative to control", "type": "ADME, cell-based, Erythrocyte"}, "[3]": {"experiment": "Hemolytic activity against human RBC up to 12 uM after 30 mins", "type": "ADME, cell-based", "settings": "erythrocyte, 0.5 h"}, "[4]": {"test_system": "ECV-304", "experiment": "Membrane permeabilization effect on lysosome of human ECV304 cells assessed as induction of membrane lysis at 3 to 48 uM after 1 hr by N-Acetylglucosaminidase release assay", "type": "functional, cell-based"}, "[5]": {"test_system": "ECV-304", "experiment": "Membrane permeabilization effect on lysosome of human ECV304 cells assessed as induction of membrane lysis up to 6 uM after 1 hr by N-Acetylglucosaminidase release assay", "type": "functional, cell-based"}, "[6]": {"test_system": "ECV-304", "experiment": "Membrane permeabilization effect on human ECV304 cells assessed as propidium iodide uptake at 3 to 48 uM after 1 hr by FACS flow cytometric analysis", "type": "functional, cell-based"}, "[7]": {"test_system": "ECV-304", "experiment": "Membrane permeabilization on human ECV304 cells at 24 uM measured every 15 secs for 3 hrs by real time impedance-based plate reader analysis", "type": "functional, cell-based"}, "[8]": {"experiment": "Hemolytic activity against human RBC at 12 uM after 30 mins relative to control", "type": "ADME, cell-based, Erythrocyte"}, "[9]": {"experiment": "Hemolytic activity against human RBC at 6 uM after 30 mins relative to control", "type": "ADME, cell-based, Erythrocyte", "settings": "red blood cells (RBC), read-out: Activity"}, "[10]": {"test_system": "ECV-304", "experiment": "Cytotoxicity against human ECV304 cells at 24 uM after 3 hrs", "type": "cell-based", "settings": "ecv-304, 3 h"}, "[11]": {"test_system": "ECV-304", "experiment": "Membrane permeabilization effect on human ECV304 cells assessed as normalized cell index at 24 uM measured every 15 secs for 3 hrs by real time impedance-based plate reader analysis relative to control", "type": "functional"}, "[12]": {"test_system": "ECV-304", "experiment": "Membrane permeabilization effect on lysosome of human ECV304 cells assessed as induction of membrane lysis at 24 to 48 uM after 1 hr by N-Acetylglucosaminidase release assay", "type": "functional, cell-based"}, "[13]": {"test_system": "ECV-304", "experiment": "Membrane permeabilization effect on human ECV304 cells assessed as increase in propidium iodide uptake at 12 uM after 1 hr by FACS flow cytometric analysis", "type": "functional, cell-based"}, "[14]": {"test_system": "ECV-304", "experiment": "Membrane permeabilization effect on human ECV304 cells assessed as induction of membrane lysis at 48 uM after 1 hr", "type": "functional, cell-based"}, "[15]": {"test_system": "ECV-304", "experiment": "Membrane permeabilization effect on human ECV304 cells assessed as normalized cell index at 12 to 24 uM measured every 15 secs for 3 hrs by real time impedance-based plate reader analysis relative to control relative to control", "type": "functional"}, "[16]": {"test_system": "ECV-304", "experiment": "Membrane permeabilization effect on human ECV304 cells assessed as normalized cell index at 6 uM measured every 15 secs for 3 hrs by real time impedance-based plate reader analysis relative to control", "type": "functional"}, "[17]": {"test_system": "ECV-304", "experiment": "Membrane permeabilization effect on human ECV304 cells at 3 uM measured every 15 secs for 3 hrs by real time impedance-based plate reader analysis", "type": "functional, cell-based"}, "[18]": {"settings": "red blood cells (RBC), read-out: Activity"}}, "note": "The source made the active and inactive calls. The rule behind the calls is not given here.", "data": [{"compound": "CCC(C)C(CC(O)CC(=O)O[C@H]1[C@@H](O)[C@@H](C)O[C@@H](OC(=O)[C@]23CCC(C)(C)C[C@H]2C2=CC[C@@H]4[C@@]5(C)CC[C@H](O[C@H]6O[C@H](C(=O)O)[C@@H](O)[C@H](O[C@@H]7OC[C@@H](O)[C@H](O)[C@H]7O)[C@H]6O[C@@H]6O[C@H](CO)[C@H](O)[C@H](O)[C@H]6O)[C@@](C)(C=O)[C@@H]5CC[C@@]4(C)[C@]2(C)C[C@H]3O)[C@@H]1O[C@@H]1O[C@@H](C)[C@H](O[C@@H]2OC[C@@H](O)[C@H](O[C@@H]3OCC(O)(O)[C@H]3O)[C@H]2O)[C@@H](O[C@@H]2O[C@H](CO)[C@@H](O)[C@H](O)[C@H]2O)[C@H]1O)OC(=O)CC(O)CC(O[C@@H]1O[C@@H](CO)[C@H](O)[C@H]1O[C@@H]1O[C@@H](C)[C@H](O)[C@@H](O)[C@H]1O)C(C)CC", "note": "(stereo in doubt; form 2) [listing 1 of 2 here]", "values": [{"measurement": "Activity", "setting": "[1]", "result": "Toxic"}, {"measurement": "hemolysis at 0.5 h, 24 µM", "setting": "[2]; [18]", "result": 61, "unit": "%"}, {"measurement": "Activity", "setting": "[3]", "result": "Non-toxic"}]}, {"compound": "CCC(C)C(CC(O)CC(=O)O[C@H]1[C@@H](O)[C@@H](C)O[C@@H](OC(=O)[C@]23CCC(C)(C)C[C@H]2C2=CC[C@@H]4[C@@]5(C)CC[C@H](O[C@H]6O[C@H](C(=O)O)[C@@H](O)[C@H](O[C@@H]7OC[C@@H](O)[C@H](O)[C@H]7O)[C@H]6O[C@@H]6O[C@H](CO)[C@H](O)[C@H](O)[C@H]6O)[C@@](C)(C=O)[C@@H]5CC[C@@]4(C)[C@]2(C)C[C@H]3O)[C@@H]1O[C@@H]1O[C@@H](C)[C@H](O[C@@H]2OC[C@@H](O)[C@H](O[C@@H]3OCC(O)(O)[C@H]3O)[C@H]2O)[C@@H](O[C@@H]2O[C@H](CO)[C@@H](O)[C@H](O)[C@H]2O)[C@H]1O)OC(=O)CC(O)CC(O[C@@H]1O[C@@H](CO)[C@H](O)[C@H]1O[C@@H]1O[C@@H](C)[C@H](O)[C@@H](O)[C@H]1O)C(C)CC", "note": "(stereo in doubt; form 2) [listing 2 of 2 here]", "values": [{"measurement": "Activity", "setting": "[4]", "result": "inactive"}, {"measurement": "Activity", "setting": "[5]", "result": "inactive"}, {"measurement": "Activity", "setting": "[6]", "result": "inactive"}, {"measurement": "Activity", "setting": "[7]", "result": "inactive"}]}, {"compound": "CCC(C)C(CC(O)CC(=O)O[C@H]1[C@@H](O)[C@@H](C)O[C@@H](OC(=O)[C@]23CCC(C)(C)C[C@H]2C2=CC[C@@H]4[C@@]5(C)CC[C@H](O[C@H]6O[C@H](C(=O)O)[C@@H](O)[C@H](O[C@@H]7OC[C@@H](O)[C@H](O)[C@H]7O)[C@H]6O[C@@H]6O[C@H](CO)[C@H](O)[C@H](O)[C@H]6O)[C@@](C)(C=O)[C@@H]5CC[C@@]4(C)[C@]2(C)C[C@H]3O)[C@@H]1O[C@@H]1O[C@@H](C)[C@H](O[C@@H]2OC[C@@H](O)[C@H](O[C@@H]3OCC(O)(O)[C@H]3O)[C@H]2O)[C@@H](O[C@@H]2O[C@H](CO)[C@@H](O)[C@H](O)[C@H]2O)[C@H]1O)OC(=O)CC(O)CC(O[C@@H]1O[C@@H](CO)[C@H](O)[C@H]1O[C@@H]1O[C@@H](C)[C@H](O)[C@@H](O)[C@H]1O)C(C)CC", "note": "(stereo in doubt; form 1)", "values": [{"measurement": "Activity", "setting": "[2]; erythrocyte, 0.5 h, 24 µM", "result": "Toxic"}, {"measurement": "hemolysis at 0.5 h, 12 µM", "setting": "[8]; [18]", "result": 67, "unit": "%"}, {"measurement": "hemolysis at 0.5 h, 6 µM", "setting": "[9]", "result": 27, "unit": "%"}, {"measurement": "Activity", "setting": "[10]", "result": "Toxic"}, {"measurement": "fold change (FC)", "setting": "[11]", "result": 0.1}]}, {"compound": "CC(=O)O[C@H]1[C@H](O[C@@H]2OC[C@@H](O)[C@H](O)[C@H]2O)[C@@H](O)[C@H](O[C@@H]2[C@H](O)[C@@H](O[C@@H]3O[C@@H](C)[C@H](O[C@@H]4OC[C@@H](O)[C@H](O[C@@H]5OC[C@@H](O)[C@H](O)[C@H]5O)[C@H]4O)[C@@H](O)[C@H]3O)[C@H](OC(=O)[C@]34CCC(C)(C)C[C@H]3C3=CC[C@@H]5[C@@]6(C)CC[C@H](O[C@H]7O[C@H](C(=O)O)[C@@H](O)[C@H](O[C@@H]8OC[C@@H](O)[C@H](O)[C@H]8O)[C@H]7O[C@@H]7O[C@H](CO)[C@H](O)[C@H](O)[C@H]7O)[C@@](C)(C=O)[C@@H]6CC[C@@]5(C)[C@]3(C)C[C@H]4O)O[C@@H]2C)O[C@@H]1C", "values": [{"measurement": "Activity", "setting": "[8]; erythrocyte, 0.5 h, 12 µM", "result": "Toxic"}, {"measurement": "hemolysis at 0.5 h, 6 µM", "setting": "[9]", "result": 61, "unit": "%"}, {"measurement": "Activity", "setting": "[12]", "result": "Active"}, {"measurement": "Activity", "setting": "[5]", "result": "inactive"}, {"measurement": "Activity", "setting": "[13]", "result": "Active"}, {"measurement": "Activity", "setting": "[14]", "result": "Active"}, {"measurement": "fold change (FC)", "setting": "[15]", "result": 0}, {"measurement": "fold change (FC)", "setting": "[16]", "result": 0.6}, {"measurement": "Activity", "setting": "[17]", "result": "inactive"}]}]}
